Results on 19 compounds are retold here after PubChem BioAssay (NCI).

Molecules are shown by their SMILES.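 These data come from cells grown in 96-well plates and exposed to compound for 48 hours at five concentrations. TGI marks complete inhibition of growth.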

Some test systems named below: BT-549 breast; SK-MEL-5 melanoma; HOP-62 NSCLC; SK-OV-3 ovarian; OVCAR-5 ovarian; UACC-62 melanoma; ACHN renal; K-562 leukemia; SK-MEL-2 melanoma; OVCAR-3 ovarian; HOP-92 NSCLC.
What all share (assay): NCI anticancer screen, dose series, 48 h

As to `Fc1ccc(C(OCCN2CCC3CCC(C2)N3CCCc2ccccc2)c2ccc(F)cc2)cc1` (centres undefined), the TGI with BT-549 breast came out at 21.1 µM; in the experiment with SK-MEL-5 melanoma, 3.22 µM; in the experiment with HOP-62 NSCLC, 23.3 µM; in the experiment on SK-OV-3 ovarian, 24.8 µM; in the experiment on OVCAR-5 ovarian, 20.3 µM; with UACC-62 melanoma, 18.2 µM. The TGI in the experiment on ACHN renal was determined as 18.2 µM; in the experiment on K-562 leukemia, 5.8 µM; in the experiment on SK-MEL-2 melanoma, 14 µM; in the experiment on OVCAR-3 ovarian, 14.8 µM; in the experiment on HOP-92 NSCLC, 18.9 µM.

`C/C(C=O)=N\Nc1cc(C)c2ccccc2n1`: the TGI in the experiment with BT-549 breast was found to be 26.6 µM; with SK-MEL-5 melanoma it was 29.9 µM; with HOP-62 NSCLC it was 29.2 µM; in the experiment with SK-OV-3 ovarian it was 45 µM; with OVCAR-5 ovarian it was 34.3 µM; with UACC-62 melanoma, 28.2 µM. Besides, the TGI was 29.9 µM with ACHN renal; 46.6 µM in the experiment with K-562 leukemia; 37.8 µM with SK-MEL-2 melanoma; 29.1 µM in the experiment with OVCAR-3 ovarian; 29.6 µM in the experiment with HOP-92 NSCLC.

For `COc1ccccc1NC(=O)C(C#N)=C(SC)SC`, the TGI in the experiment on BT-549 breast, with SK-MEL-5 melanoma, in the experiment on HOP-62 NSCLC, with SK-OV-3 ovarian, in the experiment with OVCAR-5 ovarian and in the experiment on UACC-62 melanoma was more than 100 µM each time. Moreover, the TGI with ACHN renal, in the experiment on K-562 leukemia, with SK-MEL-2 melanoma, in the experiment on OVCAR-3 ovarian and in the experiment on HOP-92 NSCLC was more than 100 µM throughout.

On to `COc1ccc(CSCc2cc(OC)c(OC)c(OC)c2)cc1`, for which the TGI in the experiment with BT-549 breast, in the experiment on SK-MEL-5 melanoma, with HOP-62 NSCLC, with SK-OV-3 ovarian, in the experiment on OVCAR-5 ovarian and with UACC-62 melanoma was more than 100 µM each time. The TGI was more than 100 µM in the experiment with ACHN renal; more than 100 µM in the experiment on K-562 leukemia; more than 100 µM in the experiment with SK-MEL-2 melanoma; more than 100 µM in the experiment with OVCAR-3 ovarian; more than 86.6 µM in the experiment with HOP-92 NSCLC.

For the compound `O=C(Nc1ccccc1)N1CCNC1=S`, the TGI in the experiment on BT-549 breast, in the experiment on SK-MEL-5 melanoma, in the experiment on HOP-62 NSCLC, in the experiment on SK-OV-3 ovarian, with OVCAR-5 ovarian and in the experiment with UACC-62 melanoma was more than 100 µM in each case. Moreover, the TGI in the experiment on ACHN renal, in the experiment with K-562 leukemia, with SK-MEL-2 melanoma, in the experiment on OVCAR-3 ovarian and with HOP-92 NSCLC was more than 100 µM each time.

In the case of `O=C(O)CCC(=O)Nc1ccc2c(c1)S(=O)(=O)N(CC(=O)O)C2=O`, the TGI with BT-549 breast, with SK-MEL-5 melanoma, in the experiment with HOP-62 NSCLC, in the experiment with SK-OV-3 ovarian, in the experiment with OVCAR-5 ovarian and with UACC-62 melanoma was more than 100 µM in each case. Also, the TGI in the experiment on ACHN renal, in the experiment with K-562 leukemia, in the experiment on SK-MEL-2 melanoma, with OVCAR-3 ovarian and in the experiment with HOP-92 NSCLC was more than 100 µM each time.

Regarding `O=C(CNC(=O)OCc1ccccc1)NCCCCC(NC(=O)OCc1ccccc1)C(=O)O` (centres undefined), the TGI with BT-549 breast, with SK-MEL-5 melanoma, in the experiment on HOP-62 NSCLC, in the experiment on SK-OV-3 ovarian, with OVCAR-5 ovarian and in the experiment with UACC-62 melanoma was more than 100 µM in each case. Further, the TGI in the experiment on ACHN renal, with K-562 leukemia, in the experiment with SK-MEL-2 melanoma, in the experiment with OVCAR-3 ovarian and in the experiment on HOP-92 NSCLC was more than 100 µM throughout.

Take `CCOc1ccc(C2c3[nH]c4ccccc4c3CCN2C(=O)c2cccs2)cc1` (centres undefined): the TGI with BT-549 breast, in the experiment on SK-MEL-5 melanoma, in the experiment on HOP-62 NSCLC, with SK-OV-3 ovarian, in the experiment with OVCAR-5 ovarian and in the experiment with UACC-62 melanoma was more than 100 µM throughout. Further, the TGI with ACHN renal, with K-562 leukemia, in the experiment on SK-MEL-2 melanoma, in the experiment with OVCAR-3 ovarian and with HOP-92 NSCLC was more than 100 µM throughout.

On to `CC[C@@]1(O)C(=O)OCc2c1c(Cl)c1n(c2=O)Cc2cc3ccccc3nc2-1`, for which the TGI in the experiment on BT-549 breast is more than 47.7 µM; in the experiment on SK-MEL-5 melanoma, 5.42 µM; in the experiment with HOP-62 NSCLC, 8.03 µM; in the experiment with SK-OV-3 ovarian, 45.5 µM; in the experiment on OVCAR-5 ovarian, 85.8 µM; with UACC-62 melanoma it was 3.38 µM. Also, the TGI is 6.05 µM in the experiment on ACHN renal; more than 100 µM in the experiment with K-562 leukemia; 52.7 µM with SK-MEL-2 melanoma; 22.1 µM in the experiment with OVCAR-3 ovarian; more than 70.3 µM in the experiment with HOP-92 NSCLC.

`Cn1c(=O)nc2n(CCO)c(-c3ccccc3)c(-c3ccccc3)nc-2c1=O`: the TGI in the experiment on BT-549 breast, with SK-MEL-5 melanoma, with HOP-62 NSCLC, in the experiment with SK-OV-3 ovarian, with OVCAR-5 ovarian and in the experiment on UACC-62 melanoma was more than 100 µM in each case. Besides, the TGI in the experiment on ACHN renal, in the experiment on K-562 leukemia, with SK-MEL-2 melanoma, in the experiment with OVCAR-3 ovarian and with HOP-92 NSCLC was more than 100 µM throughout.

Regarding `O=c1nc2n(CCO)c(-c3ccccc3)c(-c3ccccc3)nc-2c(=O)[nH]1`, the TGI with BT-549 breast, in the experiment on SK-MEL-5 melanoma, in the experiment on HOP-62 NSCLC, in the experiment with SK-OV-3 ovarian, with OVCAR-5 ovarian and in the experiment on UACC-62 melanoma was more than 100 µM in each case. Moreover, the TGI in the experiment on ACHN renal, in the experiment with K-562 leukemia, with SK-MEL-2 melanoma, in the experiment on OVCAR-3 ovarian and with HOP-92 NSCLC was more than 100 µM each time.

Take `N#Cc1cnn2c1n[n+]([O-])c1ccc(Cl)cc12`: the TGI in the experiment on BT-549 breast is 25.4 µM; in the experiment with SK-MEL-5 melanoma, 25 µM; in the experiment with HOP-62 NSCLC, 38.6 µM; in the experiment with SK-OV-3 ovarian, 23.8 µM; in the experiment with OVCAR-5 ovarian, more than 76.8 µM; with UACC-62 melanoma it was 9.09 µM. In addition, the TGI in the experiment with ACHN renal worked out at 10.5 µM; in the experiment on K-562 leukemia it was 3.91 µM; with SK-MEL-2 melanoma, 17.2 µM; with OVCAR-3 ovarian, 9.08 µM; in the experiment with HOP-92 NSCLC, 5.21 µM.

As for `CCOC(=O)CCc1c(C(=O)OCC)[nH]c(/C=C2/NC(=O)C(C)=C2CC)c1C`, the TGI in the experiment on BT-549 breast was 6.19 µM; in the experiment with SK-MEL-5 melanoma, 13.2 µM; in the experiment with HOP-62 NSCLC it was 29.8 µM; in the experiment with SK-OV-3 ovarian, more than 100 µM; with OVCAR-5 ovarian, more than 100 µM; in the experiment with UACC-62 melanoma, 19.7 µM. For the same compound, the TGI with ACHN renal was determined as 60.9 µM; in the experiment on K-562 leukemia, 12.9 µM; in the experiment on SK-MEL-2 melanoma, 40.9 µM; in the experiment on OVCAR-3 ovarian it was 16.1 µM; in the experiment on HOP-92 NSCLC it was 42.4 µM.

For the compound `COc1ccc(/C=C/C(=O)NCC(NC(=O)/C=C/c2ccc(OC)c(OC)c2)C(=O)O)cc1OC` (centres undefined), the TGI with BT-549 breast, in the experiment on SK-MEL-5 melanoma, in the experiment on HOP-62 NSCLC, in the experiment with SK-OV-3 ovarian, in the experiment with OVCAR-5 ovarian and in the experiment on UACC-62 melanoma was more than 100 µM throughout. In addition, the TGI in the experiment with ACHN renal is more than 100 µM; in the experiment with K-562 leukemia, more than 100 µM; in the experiment on SK-MEL-2 melanoma, more than 100 µM; in the experiment on OVCAR-3 ovarian, more than 100 µM; with HOP-92 NSCLC, 0.74 µM.

As to `CCCCCCN(C(=O)Oc1ccccc1)C(C#N)c1ccccc1` (centres undefined), the TGI with BT-549 breast, with SK-MEL-5 melanoma, with HOP-62 NSCLC, in the experiment with SK-OV-3 ovarian, with OVCAR-5 ovarian and with UACC-62 melanoma was more than 100 µM each time. Further, the TGI in the experiment on ACHN renal, in the experiment on K-562 leukemia, in the experiment with SK-MEL-2 melanoma, with OVCAR-3 ovarian and in the experiment on HOP-92 NSCLC was more than 100 µM in each case.

For the compound `O=C(/C=C/c1ccc(O)c(O)c1)NC(CO)C(=O)O` (centres undefined), the TGI with BT-549 breast, in the experiment with SK-MEL-5 melanoma, with HOP-62 NSCLC, in the experiment with SK-OV-3 ovarian, in the experiment on OVCAR-5 ovarian and in the experiment with UACC-62 melanoma was more than 100 µM throughout. The TGI in the experiment with ACHN renal, with K-562 leukemia, with SK-MEL-2 melanoma, in the experiment with OVCAR-3 ovarian and with HOP-92 NSCLC was more than 100 µM each time.

Turning to `NN/C(=N\S(=O)(=O)c1cc(Cl)c(Oc2ccc([N+](=O)[O-])cc2Cl)c(Cl)c1)Nc1ccc(Cl)cc1`, the TGI in the experiment on BT-549 breast is 40.9 µM; in the experiment with SK-MEL-5 melanoma it was 29.4 µM; in the experiment with HOP-62 NSCLC, 41 µM; in the experiment with SK-OV-3 ovarian, more than 100 µM; in the experiment on OVCAR-5 ovarian, 55 µM; in the experiment on UACC-62 melanoma it was 28.8 µM. The TGI with ACHN renal was 67.4 µM; in the experiment on K-562 leukemia it was more than 100 µM; in the experiment with SK-MEL-2 melanoma, 35.3 µM; with OVCAR-3 ovarian, 33 µM; with HOP-92 NSCLC it was 38.9 µM.

Consider `Cc1ccc2c(c1)C(C1Cc3c(C)cccc3C1=O)OC2=O` (centres undefined), for which the TGI in the experiment on BT-549 breast, with SK-MEL-5 melanoma, in the experiment on HOP-62 NSCLC, with SK-OV-3 ovarian, in the experiment with OVCAR-5 ovarian and in the experiment with UACC-62 melanoma was more than 100 µM in each case. Further, the TGI with ACHN renal, in the experiment with K-562 leukemia, in the experiment with SK-MEL-2 melanoma, with OVCAR-3 ovarian and in the experiment on HOP-92 NSCLC was more than 100 µM throughout.

Turning to `Cc1sc2ncnc(NCCc3ccccc3)c2c1C`, the TGI with BT-549 breast came out at 62.9 µM; with SK-MEL-5 melanoma, 12.2 µM; in the experiment with HOP-62 NSCLC, 33.8 µM; in the experiment on SK-OV-3 ovarian, 73.4 µM; with OVCAR-5 ovarian, 35.8 µM; in the experiment with UACC-62 melanoma, 24.6 µM. Besides, the TGI in the experiment on ACHN renal was 69.2 µM; in the experiment with K-562 leukemia it was 63.1 µM; in the experiment on SK-MEL-2 melanoma, 31.2 µM; in the experiment on OVCAR-3 ovarian, more than 100 µM; in the experiment with HOP-92 NSCLC, 15.5 µM.
